Biological target: protein phosphatase 2A (PP2A)
Assay: PP2A inhibition assay
Assay type: biochemical

Structure (SMILES): CCCCC/C=C/C=C\C=C/[C@H](O)[C@H](C)[C@H](C/C=C/[C@@H]1OC(=O)C=C[C@@H]1O)OP(=O)(O)O [compound 2, phostriecin]
- IC50: 720 nM
